Source: publication PMC7997574, “Lead Optimization of Benzoxazolone Carboxamides as Orally Bioavailable and CNS Penetrant Acid Ceramidase Inhibitors” (Journal of Medicinal Chemistry, 2020)
Where “and” joins values, the source holds several entries; their conditions need not be identical. Equal values may be shown once. Read-outs that look alike come from different tables or passages of the source.

Legend:
[1] = Plasma and brain concentrations in Twitcher mice; assay type: in vivo; conditions: both sexes, Twitcher (GALC–/−), mouse, ip, 1 h after last dose (day 20)
Experimental: 4L;C* mice (C57BL/6 J/129SvEV) were randomly assigned to three treatment groups (N = 4–8 with mixed males and females) and dosed once a day i.p. with 90 or 30 mg kg^–1 of 22m or vehicle. Treatment started at 5 days of age for a duration of 14 days. The application volume was set to 10 μL per gram of body weight, and dosage was adjusted accordingly. Animals of all groups were sacrificed 1 h after the last dose, and the brain tissues and plasma were collected. The left brain containing cortex, cerebella, thalamus, and brainstem was analyzed for SphL levels by MS. Data were analyzed using the Student t test. The right brain containing cortex, cerebella, thalamus, and brainstem and plasma were analyzed for drug levels of 22m. All mice were housed under pathogen-free conditions in the animal facility, and animal experiment was performed according to the IACUC approved protocol (2018-0056) at Cincinnati Children’s Hospital Research Foundation. Wild Type (WT) (GALC+/+) and Twitcher (Twi) (GALC–/−) mice were genotyped by PCR as previously described.[58] Twi mice were randomly assigned to three treatment groups (N = 3 males + N = 3 females for each group) and dosed once a day i.p. with 90 or 30 mg kg^–122m or vehicle for a duration of 20 days. Treatment started at 10 days of age. The application volume was set to 10 μL per gram of body weight, and dosage was adjusted accordingly. Two groups (N = 3 males + N = 3 females for each group) of WT controls treated with vehicle or high dose (90 mg kg^–1) of 22m were also included in the study. Animals of all groups were sacrificed 1 h after the last dose, and the brain tissues and plasma were collected. The left brain containing cortex, cerebella, thalamus, and brainstem was analyzed for SphL levels by MS. Data were analyzed using the Student t test. The right brain containing cortex, cerebella, thalamus, and brainstem and plasma were analyzed for drug levels of 22m. All animal work in this study was performed in accordance with approved animal protocols from the Animal Care and Use Committee at the University of Illinois at Chicago.

[2] = In vitro microsomal stability study; assay type: in vitro ADME; conditions: mouse liver microsomes
Summary of the method: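 Test compound at 4.6 μM final was incubated at 37 °C with mouse liver microsomes in 0.1 M Tris HCl (pH 7.4), with an NADPH/G6P/G6PDH/MgCl2 cofactor system, and sampled at 0–60 min. Parent remaining relative to t = 0 was measured by LC/MS/MS. t1/2 came from one-phase decay regression, as the mean of at least two independent experiments.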

[3] = target: T1, AC (Homo sapiens, UniProt Q13510); assay: hAC LC/MS-based activity assay in SH-SY5Y cells; assay type: cell-based; design: host or cells: SH-SY5Y
T1 sequence (Q13510 22-395): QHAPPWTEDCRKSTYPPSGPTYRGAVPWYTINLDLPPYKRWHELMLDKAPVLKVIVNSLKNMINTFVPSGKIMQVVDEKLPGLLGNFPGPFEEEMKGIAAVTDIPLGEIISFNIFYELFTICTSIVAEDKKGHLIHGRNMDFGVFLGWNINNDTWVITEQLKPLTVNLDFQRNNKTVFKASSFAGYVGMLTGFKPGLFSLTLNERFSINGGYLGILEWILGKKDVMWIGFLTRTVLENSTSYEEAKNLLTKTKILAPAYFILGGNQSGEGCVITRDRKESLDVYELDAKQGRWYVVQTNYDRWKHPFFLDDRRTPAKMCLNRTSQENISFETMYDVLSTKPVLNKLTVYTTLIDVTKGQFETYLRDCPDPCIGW
Experimental: SH-SY5Y cells were purchased from Sigma Aldrich (Italy) and cultured in Dulbecco’s modified Eagle’s medium (DMEM) containing 10% fetal bovine serum at 37 °C and 5% CO2. Drugs were dissolved in DMSO (10 mM) and diluted in the cell culture medium with reduced serum (1%) for cell treatments.
hAC activity measurement was performed as previously described.[36],[37] Total lysates from cells were diluted in assay buffer (100 mM sodium phosphate, 0.1% Nonidet P-40, 150 mM NaCl, 3 mM DTT, 100 mM sodium citrate, pH 4.5). Reactions were started by the addition of 50 μM N-lauroyl ceramide (Nu-Chek Prep, Elysian, MN) and carried out for 1 h at 37 °C. Reactions were stopped by addition of a mixture of CHCl3/MeOH (2:1) containing 1 nmol of 11-lauroleic acid (Nu-Chek Prep). The organic phases were collected, dried under nitrogen, and analyzed by UPLC/MS (ACQUITY, Waters) in the negative-ion mode monitoring the reaction product (lauric acid, m/z: 199) using 11-lauroleic acid as internal standard. […] The [M–H]^− ion was monitored in the selected-ion monitoring mode (m/z values: lauric acid 199, 11-lauroleic acid 197.35). […]

Compound: CC(C)CNC(=O)n1c(=O)oc2cc(C3CCN(C)CC3)ccc21 [22m, N-Isobutyl-6-(1-methyl-4-piperidyl)-2-oxo-1,3-benzoxazole-3-carboxamide]
- concentration at 1 h ([1]; brain, 30 mg kg^–1, Twitcher mice, 30 mg kg^–1 i.p., read-out: Cb (μM) brain concentration): 114 µM
- concentration at 1 h ([1]; brain, 30 mg kg^–1, Twitcher mice, 30 mg kg^–1 i.p., read-out: Cb, u (μM) brain unbounded concentration): 0.8 µM
- concentration at 1 h ([1]; brain, 90 mg kg^–1, Twitcher mice, 90 mg kg^–1 i.p., read-out: Cb (μM) brain concentration): 308 µM
- concentration at 1 h ([1]; brain, 90 mg kg^–1, Twitcher mice, 90 mg kg^–1 i.p., read-out: Cb, u (μM) brain unbounded concentration): 2.15 µM
- concentration at 1 h ([1]; plasma, 30 mg kg^–1, Twitcher mice, 30 mg kg^–1 i.p., read-out: Cp (μM) plasma concentration): 0.85 µM
- concentration at 1 h ([1]; plasma, 30 mg kg^–1, Twitcher mice, 30 mg kg^–1 i.p., read-out: Cp,u (μM) plasma unbounded concentration): 0.11 µM
- concentration at 1 h ([1]; plasma, 90 mg kg^–1, Twitcher mice, 90 mg kg^–1 i.p., read-out: Cp (μM) plasma concentration): 3.85 µM
- concentration at 1 h ([1]; plasma, 90 mg kg^–1, Twitcher mice, 90 mg kg^–1 i.p., read-out: Cp,u (μM) plasma unbounded concentration): 0.52 µM
- m-LM [% at 60 min] ([2]; % remaining at 60 min): 76% and 80%
- half-life at 4.6 μM ([2]; pH 7.4, read-out: m-LM t1/2): > 1 h
- AC activity in SH-SY5Y cells ([3]; 1, 2.5, 5, 10 μM, 30 min, 1 h, 3 h, 6 h): concentration- (Figure 5A) and time-dependent reduction of AC activity
- persistence of effect on AC activity inhibition and SphL ([3]; SH-SY5Y cells, 10 μM): persisted for up to 6 h
